Test results reported in PMC9743148 (Annals of oncology : official journal of the European …, 2020).
Entries after “also recorded” stand apart in the source; their conditions may differ. Read-outs that look alike come from different tables or passages of the source.

Experiments:
[1] = system: patients with advanced solid tumors; experiment: Dose-limiting toxicity, MTD and RP2D determination; type: in vivo, human
[2] = for T1/2 / Tmax: 20 mg q.d.
[3] = Dose-proportionality power regression of PK parameters; type: in vivo, human; conditions: 8–200-mg dose range t.i.w.

C=CC(=O)N1CC[C@H](n2nc(C#Cc3cc(OC)cc(OC)c3)c3c(N)ncnc32)C1 [futibatinib]
Dose-limiting toxicities ([1]; 4, 8, 16, or 20 mg q.d.): No DLTs were observed
Recommended phase II dose (RP2D) ([1]; human, in vivo, oral, 21 days): 20 mg q.d.
Dose-limiting toxicities ([1]; other t.i.w. cohorts including 200 mg): no DLTs were reported
Maximum tolerated dose (MTD) ([1]; q.d. schedule): 20 mg q.d.
Maximum tolerated dose (MTD) ([1]; t.i.w. schedule, up to 200 mg): no MTD was defined; also recorded: not defined
T1/2 ([2]; cycle 1 Day 1, mean): 2.94 h
Tmax ([2]; cycle 1 Day 1, median): 1.92 h
T1/2 ([2]; cycle 1 Day 21, mean): 3.44 h
Tmax ([2]; cycle 1 Day 21, median): 3.52 h
Accumulation with repeated doses ([2]; both schedules): no significant accumulation
Urinary excretion of futibatinib ([2]; urine): lower than 0.01 % of the dose
Dose proportionality of Cmax [3]: less than a dose-proportional manner
